Reference: patent publication US20210298306A1, “PESTICIDALLY ACTIVE AZOLE-AMIDE COMPOUNDS” (SYNGENTA PARTICIPATIONS AG, priority 2018, published 2021)

Columns and labels:
Type in all cases: in vivo
Diabrotica balteata = test: Example B1: Diabrotica balteata (corn root worm), maize sprouts sprayed, L2 larvae; conditions: 96 h, application rate 200 ppm, 4 days after infestation, read-out: effect in at least one of the two categories (mortality or growth inhibition)
Experimental: Example B1: Diabrotica Balteata (Corn Root Worm)
Maize sprouts placed onto an agar layer in 24-well microtiter plates were treated with aqueous test solutions prepared from 10,000 ppm DMSO stock solutions by spraying. After drying, the plates were infested with L2 larvae (6 to 10 per well). The samples were assessed for mortality and growth inhibition in comparison to untreated samples 4 days after infestation.
(§1) The following compounds gave an effect of at least 80% in at least one of the two categories (mortality or growth inhibition) at an application rate of 200 ppm: […]

Thrips tabaci = test: Example B9: Thrips tabaci (onion thrips), feeding/contact activity, sunflower leaf discs; conditions: foliar, 144 h; application rate 200 ppm; 6 days after infestation; Thrips tabaci mixed ages
Experimental: Example B9: Thrips tabaci (Onion Thrips) Feeding/Contact Activity
Sunflower leaf discs were placed on agar in 24-well microtiter plates and sprayed with aqueous test solutions prepared from 10,000 ppm DMSO stock solutions. After drying the leaf discs were infested with a thrips population of mixed ages. The samples were assessed for mortality 6 days after infestation.

Myzus persicae [1] = test: Example B6: Myzus persicae (green peach aphid), intrinsic activity, sucrose solution, 24-well; conditions: 120 h, test rate 12 ppm, 5 days after infestation
Text: Example B6: Myzus persicae (Green Peach Aphid). Intrinsic Activity
Test compounds prepared from 10,000 ppm DMSO stock solutions were applied by pipette into 24-well microtiter plates and mixed with sucrose solution. The plates were closed with a stretched Parafilm. A plastic stencil with 24 holes was placed onto the plate and infested pea seedlings were placed directly on the Parafilm. The infested plate was closed with a gel blotting paper and another plastic stencil and then turned upside down. The samples were assessed for mortality 5 days after infestation.

Myzus persicae [2] = test: Example B10: Myzus persicae (green peach aphid), sucrose solution, 96-well; conditions: 120 h, application rate 50 ppm, 5 days after infestation
Text: Example B10: Myzus persicae (Green Peach Aphid)
Test compounds prepared from 10,000 ppm DMSO stock solutions were applied by a liquid handling robot into 96-well microtiter plates and mixed with a sucrose solution. Parafilm was stretched over the 96-well microtiter plate and a plastic stencil with 96 holes was placed onto the plate. Aphids were sieved into the wells directly onto the Parafilm. The infested plates were closed with a gel blotting card and a second plastic stencil and then turned upside down. The samples were assessed for mortality 5 days after infestation.

Myzus persicae [3] = test: Example B5: Myzus persicae (green peach aphid), feeding/contact activity, sunflower leaf discs; conditions: foliar, 144 h, application rate 200 ppm, 6 days after infestation, Myzus persicae mixed ages
Experimental: Example B5: Myzus persicae (Green Peach Aphid):Feeding/Contact Activity
Sunflower leaf discs were placed onto agar in a 24-well microtiter plate and sprayed with aqueous test solutions prepared from 10,000 ppm DMSO stock solutions. After drying, the leaf discs were infested with an aphid population of mixed ages. The samples were assessed for mortality 6 days after infestation.

Plutella xylostella [4] = test: Example B11: Plutella xylostella (diamondback moth), artificial diet, 96-well, eggs; conditions: 216 h, application rate 500 ppm, 9 days after infestation
Experimental: Example B11: Plutella xylostella (Diamondback Moth)
96-well microtiter plates containing artificial diet were treated with aqueous test solutions, prepared from 10,000 ppm DMSO stock solutions, by a liquid handling robot. After drying, eggs (˜30 per well) were infested onto a netted lid which was suspended above the diet. The eggs hatch and L1 larvae move down to the diet. The samples were assessed for mortality 9 days after infestation.
The following compounds gave an effect of at least 80% average mortality at an application rate of 500 ppm: […]

Plutella xylostella [5] = test: Example B4: Plutella xylostella (diamond back moth), artificial diet, 24-well, eggs; conditions: 192 h, application rate 200 ppm, 8 days after infestation, read-out: effect in at least one of the two categories (mortality or growth inhibition)
Experimental: Example B4: Plutella xylostella (Diamond Back Moth)
24-well microtiter plates with artificial diet were treated with aqueous test solutions prepared from 10,000 ppm DMSO stock solutions by pipetting. After drying, Plutella eggs were pipetted through a plastic stencil onto a gel blotting paper and the plate was closed with it. The samples were assessed for mortality and growth inhibition in comparison to untreated samples 8 days after infestation.
as §1

Euschistus heros = test: Example B2: Euschistus heros (neotropical brown stink bug), soybean leaves sprayed, N2 nymphs; conditions: 120 h, application rate 200 ppm, 5 days after infestation, read-out: effect in at least one of the two categories (mortality or growth inhibition)
Experimental: Example B2: Euschistus heros (Neotropical Brown Stink Bug)
Soybean leaves on agar in 24-well microtiter plates were sprayed with aqueous test solutions prepared from 10,000 ppm DMSO stock solutions. After drying the leaves were infested with N2 nymphs. The samples were assessed for mortality and growth inhibition in comparison to untreated samples 5 days after infestation.
as §1

Chilo suppressalis = test: Example B3: Chilo suppressalis (striped rice stemborer), artificial diet, L2 larvae; conditions: 144 h, application rate 200 ppm, 6 days after infestation, read-out: control in at least one of the categories (mortality, anti-feedant effect, or growth inhibition)
Experimental: Example B3: Chilo suppressalis (Striped Rice Stemborer)
24-well microtiter plates with artificial diet were treated with aqueous test solutions prepared from 10,000 ppm DMSO stock solutions by pipetting. After drying, the plates were infested with L2 larvae (6-8 per well). The samples were assessed for mortality, anti-feeding effect, and growth inhibition in comparison to untreated samples 6 days after infestation. Control of Chilo suppressalis by a test sample is given when at least one of the categories mortality, anti-feedant effect, and growth inhibition is higher than the untreated sample.

Spodoptera littoralis [6] = test: Example B7: Spodoptera littoralis (Egyptian cotton leaf worm), cotton leaf discs sprayed, L1 larvae; conditions: foliar, 72 h, application rate 200 ppm, 3 days after infestation, read-out: control in at least one of the categories (mortality, anti-feedant effect, or growth inhibition)
Experimental: Example B7: Spodoptera littoralis (Egyptian Cotton Leaf Worm)
Cotton leaf discs were placed onto agar in 24-well microtiter plates and sprayed with aqueous test solutions prepared from 10,000 ppm DMSO stock solutions. After drying the leaf discs were infested with five L1 larvae. The samples were assessed for mortality, anti-feeding effect, and growth inhibition in comparison to untreated samples 3 days after infestation. Control of Spodoptera littoralis by a test sample is given when at least one of the categories mortality, anti-feedant effect, and growth inhibition is higher than the untreated sample.

Spodoptera littoralis [7] = test: Example B8: Spodoptera littoralis (Egyptian cotton leaf worm), uptake by lettuce roots from agar, eggs; conditions: 144 h, test rate 12.5 ppm, 6 days after infestation, lettuce root uptake, read-out: effect in at least one of the three categories (mortality, anti-feeding, or growth inhibition)
Text: Example B8: Spodoptera littoralis (Egyptian Cotton Leaf Worm)
Test compounds were applied by pipette from 10,000 ppm DMSO stock solutions into 24-well plates and mixed with agar. Lettuce seeds were placed onto the agar and the multi well plate was closed by another plate which contained also agar. After 7 days the compound was absorbed by the roots and the lettuce grew into the lid plate. The lettuce leaves were then cut off into the lid plate. Spodoptera eggs were pipetted through a plastic stencil onto a humid gel blotting paper and the lid plate was closed with it. The samples were assessed for mortality, anti-feedant effect and growth inhibition in comparison to untreated samples 6 days after infestation.
The following compounds gave an effect of at least 80% in at least one of the three categories (mortality, anti-feeding, or growth inhibition) at a test rate of 12.5 ppm: […]

CC(c1ncnn1-c1ncccn1)N(CC1CC1)C(=O)c1cc(SC(F)F)cc(C(F)(F)F)c1 (stereo not drawn) [P18, N-(cyclopropylmethyl)-3-(difluoromethylsulfanyl)-N-[1-(2-pyrimidin-2-yl-1,2,4-triazol-3-yl)ethyl]-5-(trifluoromethyl) benzamide]
≥ 80%: percent effect (mortality or growth inhibition) at 200 ppm (Diabrotica balteata) | mortality at 200 ppm (Thrips tabaci) | mortality at 12 ppm (Myzus persicae [1]) | mortality at 50 ppm (Myzus persicae [2]) | mortality at 200 ppm (Myzus persicae [3]) | mortality at 500 ppm (Plutella xylostella [4]) | percent effect (mortality or growth inhibition) at 200 ppm (Plutella xylostella [5]) | percent effect (mortality or growth inhibition) at 200 ppm (Euschistus heros)

CC(c1ncnn1-c1ncccn1)N(CC1CC1)C(=O)c1cc(OC(F)(F)F)cc(C(F)(F)F)c1 (stereo not drawn) [P4, N-(cyclopropylmethyl)-N-[1-(2-pyrimidin-2-yl-1,2,4-triazol-3-yl)ethyl]-3-(trifluoromethoxy)-5-(trifluoromethyl) benzamide]
≥ 80%: percent effect (mortality or growth inhibition) at 200 ppm (Diabrotica balteata) | percent control (mortality, anti-feedant effect or growth inhibition) at 200 ppm (Chilo suppressalis) | mortality at 12 ppm (Myzus persicae [1]) | percent control (mortality, anti-feedant effect or growth inhibition) at 200 ppm (Spodoptera littoralis [6]) | mortality at 200 ppm (Myzus persicae [3]) | percent effect (mortality or growth inhibition) at 200 ppm (Plutella xylostella [5]) | percent effect (mortality or growth inhibition) at 200 ppm (Euschistus heros)

CC(NC(=O)c1cc(OCC(F)(F)F)cc(C(F)(F)F)c1)c1ncnn1-c1ncccc1F (stereo not drawn) [P14, N-[1-[2-(3-fluoro-2-pyridyl)-1,2,4-triazol-3-yl]ethyl]-3-(2,2,2-trifluoroethoxy)-5-(trifluoromethyl) benzamide]
≥ 80%: percent effect (mortality or growth inhibition) at 200 ppm (Diabrotica balteata) | mortality at 50 ppm (Myzus persicae [2]) | percent control (mortality, anti-feedant effect or growth inhibition) at 200 ppm (Spodoptera littoralis [6]) | mortality at 500 ppm (Plutella xylostella [4]) | percent effect (mortality or growth inhibition) at 200 ppm (Plutella xylostella [5]) | percent effect (mortality or growth inhibition) at 200 ppm (Euschistus heros)

CC(c1ncnn1-c1ncccn1)N(CC1CC1)C(=O)c1cc(OC(F)F)cc(C(F)(F)F)c1 (stereo not drawn) [P2, N-(cyclopropylmethyl)-3-(difluoromethoxy)-N-[1-(2-pyrimidin-2-yl-1,2,4-triazol-3-yl)ethyl]-5-(trifluoromethyl) benzamide]
≥ 80%: percent effect (mortality or growth inhibition) at 200 ppm (Diabrotica balteata) | mortality at 200 ppm (Thrips tabaci) | percent control (mortality, anti-feedant effect or growth inhibition) at 200 ppm (Chilo suppressalis) | mortality at 12 ppm (Myzus persicae [1]) | percent control (mortality, anti-feedant effect or growth inhibition) at 200 ppm (Spodoptera littoralis [6]) | mortality at 200 ppm (Myzus persicae [3]) | percent effect (mortality, anti-feeding or growth inhibition) at 12.5 ppm (Spodoptera littoralis [7]) | percent effect (mortality or growth inhibition) at 200 ppm (Plutella xylostella [5]) | percent effect (mortality or growth inhibition) at 200 ppm (Euschistus heros)

CC(NC(=O)c1cc(OCC(F)F)cc(C(F)(F)F)c1)c1ncnn1-c1ncccn1 (stereo not drawn) [P20, 3-(2,2-difluoroethoxy)-N-[1-(2-pyrimidin-2-yl-1,2,4-triazol-3-yl)ethyl]-5-(trifluoromethyl) benzamide]
≥ 80%: percent control (mortality, anti-feedant effect or growth inhibition) at 200 ppm (Chilo suppressalis) | mortality at 12 ppm (Myzus persicae [1]) | mortality at 50 ppm (Myzus persicae [2]) | percent control (mortality, anti-feedant effect or growth inhibition) at 200 ppm (Spodoptera littoralis [6]) | mortality at 200 ppm (Myzus persicae [3]) | mortality at 500 ppm (Plutella xylostella [4]) | percent effect (mortality or growth inhibition) at 200 ppm (Plutella xylostella [5]) | percent effect (mortality or growth inhibition) at 200 ppm (Euschistus heros)

CC(c1ncnn1-c1ncccn1)N(CC1CC1)C(=O)c1cc(SC(F)(F)F)cc(C(F)(F)F)c1 (stereo not drawn) [P5, N-(cyclopropylmethyl)-N-[1-(2-pyrimidin-2-yl-1,2,4-triazol-3-yl)ethyl]-3-(trifluoromethyl)-5-(trifluoromethylsulfanyl) benzamide]
≥ 80%: percent effect (mortality or growth inhibition) at 200 ppm (Diabrotica balteata) | mortality at 200 ppm (Thrips tabaci) | percent control (mortality, anti-feedant effect or growth inhibition) at 200 ppm (Chilo suppressalis) | mortality at 12 ppm (Myzus persicae [1]) | percent control (mortality, anti-feedant effect or growth inhibition) at 200 ppm (Spodoptera littoralis [6]) | percent effect (mortality, anti-feeding or growth inhibition) at 12.5 ppm (Spodoptera littoralis [7]) | percent effect (mortality or growth inhibition) at 200 ppm (Plutella xylostella [5]) | percent effect (mortality or growth inhibition) at 200 ppm (Euschistus heros)

CC(NC(=O)c1cc(OC(F)F)cc(C(F)(F)F)c1)c1ncnn1-c1ncccn1 (stereo not drawn) [P8, 3-(difluoromethoxy)-N-[1-(2-pyrimidin-2-yl-1,2,4-triazol-3-yl)ethyl]-5-(trifluoromethyl) benzamide]
≥ 80%: percent effect (mortality or growth inhibition) at 200 ppm (Diabrotica balteata) | mortality at 200 ppm (Thrips tabaci) | mortality at 12 ppm (Myzus persicae [1]) | percent control (mortality, anti-feedant effect or growth inhibition) at 200 ppm (Spodoptera littoralis [6]) | mortality at 200 ppm (Myzus persicae [3]) | percent effect (mortality, anti-feeding or growth inhibition) at 12.5 ppm (Spodoptera littoralis [7]) | percent effect (mortality or growth inhibition) at 200 ppm (Plutella xylostella [5]) | percent effect (mortality or growth inhibition) at 200 ppm (Euschistus heros)

CC(NC(=O)c1cc(OC(F)(F)F)cc(C(F)(F)F)c1)c1ncnn1-c1ncccn1 (stereo not drawn) [P19, N-[1-(2-pyrimidin-2-yl-1,2,4-triazol-3-yl)ethyl]-3-(trifluoromethoxy)-5-(trifluoromethyl) benzamide]
≥ 80%: percent effect (mortality or growth inhibition) at 200 ppm (Diabrotica balteata) | percent control (mortality, anti-feedant effect or growth inhibition) at 200 ppm (Chilo suppressalis) | mortality at 12 ppm (Myzus persicae [1]) | mortality at 50 ppm (Myzus persicae [2]) | percent control (mortality, anti-feedant effect or growth inhibition) at 200 ppm (Spodoptera littoralis [6]) | mortality at 200 ppm (Myzus persicae [3]) | mortality at 500 ppm (Plutella xylostella [4]) | percent effect (mortality or growth inhibition) at 200 ppm (Plutella xylostella [5]) | percent effect (mortality or growth inhibition) at 200 ppm (Euschistus heros)
